Where two headings read alike, the source gives them in different places.
How the values were obtained:
PARP1/2 [1] = assay: Blocking of PARPi-FL uptake by PARP inhibitors (confocal microscopy, flow cytometry); format: cell-based, human; settings: JHU-LX22 cells; for Blocking of PARPi-FL uptake / target engagement, in words: pretreatment with inhibitor, then PARPi-FL; for Blocking of PARPi-FL uptake: pretreatment with PARP inhibitor 25 min, then PARPi-FL 15 min
Description: (§1) Cells were then treated with fluorescent imaging agent PARPi-FL and either imaged via confocal microscopy or measured via flow cytometry. […] Then, cells were trypsinized, subjected to flow cytometry and analyzed for the relative PARPi-FL fluorescence signal. […] Error bars represent the SD of three independent experiments with three parallels each
We conducted confocal laser scanning microscopy to visualize the extent of intracellular blocking of PARPi-FL uptake by different PARPi. […] PARPi-FL was removed and cells were washed in fresh medium for 10 min. Next, cells were treated with 4% Paraformaldehyde (PFA) for 8 min on ice to ensure fixation. […] PARPi-FL intensity was determined by measuring the PARPi-FL fluorescence intensity in all nuclei, which were thresholded using Hoechst staining.
(§2) After the respective treatment/staining, which is described below for the different experiments, cells were washed in PBS, trypsinized, washed with flow buffer (1% BSA (w/v) in PBS), transferred to 5 mL flow cytometry tubes through the 40 µm cell strainer cap and left on ice until measurement in the flow cytometer (Fortessa II). Raw data were processed in FlowJo software in order to calculate PARPi-FL uptake per cell. Dead cells were excluded by eliminating DAPI positive cells from the analysis (Supplementary Fig. 8). Cell clumps and debris were eliminated using the corresponding gates (forward and side scatter) for the unstained cell population. PARPi-FL fluorescence was imaged in the FITC channel against side scatter (area).
Controls (cells incubated with medium instead of a PARP inhibitor) served as reference value and their PARPi-FL signal was defined as 100%.
To quantify the extent of blocking of PARPi-FL uptake by different PARPi, we quantified the intracellular PARPi-FL uptake in JHU-LX22 cells after incubation with PARP inhibitors.

PARP1/2 [2] = settings: for Blocking of [18F]PARPi tumor uptake (target engagement): 30 min before tracer, PET 2 h later
Excerpt: Fig. 7 Variable dose blocking.
The control group received no therapeutic inhibitor.

PARP1/2 [3] = settings: olaparib 50 mg/kg, talazoparib 0.3 mg/kg i.v., 60 min between drug and tracer
Description: (§3) All PET/CT images (n = 90) were acquired on an Inveon PET/CT (Siemens) and reconstructed scans were analyzed using the Inveon Research Workplace Software (Siemens). To acquire PET/CT images, animals were anesthetized with 2% isoflurane and positioned on the scanner bed. […] PET data were collected for 5–10 min, followed by CT.
Activity concentration was quantified by averaging the mean values taken from VOIs drawn over the entire tumor as it appeared in the CT and portrayed as a mean %ID/g ± SD.

PARP1/2 [4] = assay: Ex vivo autoradiography of target engagement; settings: olaparib 50 mg/kg, talazoparib 0.3 mg/kg, 30 min prior to tracer; tumor collected 2 h post tracer
Description: Sections from 3 different tumor areas from each tumor (n = 3/group) were exposed to an autoradiography plate overnight and read the next day. ImageJ was used to quantify the signal intensity of each tissue. Adjacent sections were used for PARP1 IHC and H&E staining to confirm tissue identity and PARP1 expression.

PARylation in LX22 cells = assay: PARylation inhibition assay (western blot for PAR); format: cell-based, human; settings: 0.1 µM, 30 min incubation
Description: Whole cell lysates were prepared by incubating cells with RIPA Buffer with Triton X (BP-140, Boston BioProducts) containing Protease Inhibitor (Complete EASYpacks, Sigma-Aldrich) for 30 min on ice, followed by 30 min centrifugation at 10,000 × g for 30 min at 4 °C. Protein concentration of lysates was determined using a Bicinchoninic acid (BCA) assay kit (#23225, Pierce) and following the manufacturers instructions. SDS gel electrophoresis and immunoblotting were carried out following standard procedures. Signal detection was carried out using chemiluminescent substrate (#34077, Thermo Scientific). Densitometric analysis of western blots was carried out using ImageJ (NIH). To detect PAR, we used a rabbit polyclonal anti-PAR polymer antibody (1:1000 dilution, #4336-BPC-100, Trevigen) followed by a goat anti-rabbit IgG-HRP secondary antibody (1:10,000 dilution, sc-2004, SantaCruz). B-actin was used as loading control (1:1000 dilution, A3854, Sigma-Aldrich) and was stained after stripping the blot for 30 min at room temperature using stripping buffer (Amresco).
Supplementary Figure 3 | PARylation inhibition assay.
PARPi-FL and [18F]PARPi quantify PARP inhibition, we compared their ability to inhibit PARylation
in comparison with olaparib.
inhibition. At 1 µM, the PAR signal for all three compounds is nearly completely eliminated.

PARP1/2 [5] = assay: In vitro binding kinetics by recovery of PARPi-FL binding (flow cytometry); format: cell-based, human
Description: as §1, §2
We furthermore determined the duration of PARPi binding to their target site. […] Then, cells were subjected to flow cytometry as described above. […] We determined the duration of binding of the PARPi indirectly by calculating the recovery of PARP-FL binding with increasing times between PARPi and PARPi-FL treatment. Decay curves were calculated with Prism using two phase decay least squares regression.

PARP1 = molecular target: T1, PARP1 (Homo sapiens, UniProt P09874); settings: cited from earlier work
T1 construct: purchased BPS Bioscience, San Diego, CA

JHU-LX22 cells = assay: Cytotoxicity, Alamar Blue assay; format: cell-based, human; settings: 24-96 h
Description: […]. Cells were plated in 96-well plates (black, clear-bottom, Corning Incorporated) at a density of 5,000 cells/well and allowed them to attach for 24 h. All compounds were prepared as 10 mM stock solutions in DMSO and further diluted in media. Cells were treated with 0, 2, 5, and 10 µM (final solutions containing 1% DMSO) of each compound for 24, 48, 72 and 96 h. Then, media was removed and Alamar Blue reagent was added to each well. Plates were incubated at 37 °C for 4 h under protection from direct light. Fluorescence was read (bottom-read mode) using an excitation wavelength of 570 nm and an emission wavelength of 585 nm on a SpectraMax M5 microplate reader (Molecular Devices, Sunnyvale, CA, USA). The average reading values were analyzed by subtracting the background readings (wells with Alamar Blue but without cells) and compared against the untreated controls of each plate (defined as 100% viability) to determine the percentage of living cells. The experiment was carried out in three biological replicates with four parallels of each compound.
Supplementary Figure 9 | In vitro toxicity of the tested PARP inhibitors and imaging tracers on JHU-LX22 cells. (a) Assessment of viable cell population during flow cytometry after a 2 hour incubation time of several PARP inhibitors at concentrations between 0 and 5 µM. (b) Cell viability determination using Alamar Blue assays. Cells were incubated with 0, 0.2, 2, 5 or 10 µM of each compound for 24, 48, 72 or 96 h and cell viability was assessed using the Alamar Blue assay. (c) IC values derived from Alamar Blue assays at 72 h and 96 h.
Viability data represent means from three independent experiments, each with four parallels of each sample. Error bars represent the standard error (SEM). […]

JHU-LX48 SCLC PDX [6] = assay: PET/CT tumor size study
Description: PET/CT imaging was performed once a week over 8 consecutive weeks starting one week after xenografting. a Representative MIPs from the same mouse over 8 weeks. b Quantification (n = 6) of mean uptake (top) and max uptake (bottom) of the PET images grouped by tumor size.
as §3
This was continued for 8 consecutive weeks until mice were sacrificed to avoid surpassing a tumor size limit of 1500 mm^3. Activity concentration was quantified by averaging the mean or max values taken from VOIs drawn over the entire tumor as it appeared in the CT and portrayed as mean and max %ID/g ± SD.

PARP2 = molecular target: T2, PARP2 (Homo sapiens, UniProt Q9UGN5); assay: PARP2 IC50 assay (BPS Bioscience, Strep-HRP, histone substrate); format: biochemical; settings: footnote a: see Supplementary Fig. 2
T2 construct: purchased BPS Bioscience, San Diego, CA
Description: Assays were performed by BPS Bioscience, San Diego, CA. […] Data was reported by BPS a`s % enzyme activity curve from 0.03 nM or 0.1 nM to 1000 nM.

JHU-LX48 SCLC PDX [7] = assay: PET/CT imaging agent kinetics; format: in vivo, NSG mice; settings: i.v., JHU-LX48 PDX mice
Excerpt: Error bars represent the SD
Different mice were used for each group to eliminate, as much as possible, the influence of anesthesia on tracer distribution.

[8] = JHU-LX22 cells, 0.2 µM inhibitor 25 min, washed, 0-48 h post-incubation, two phase decay fit

T2 sequence (Q9UGN5 whole entry): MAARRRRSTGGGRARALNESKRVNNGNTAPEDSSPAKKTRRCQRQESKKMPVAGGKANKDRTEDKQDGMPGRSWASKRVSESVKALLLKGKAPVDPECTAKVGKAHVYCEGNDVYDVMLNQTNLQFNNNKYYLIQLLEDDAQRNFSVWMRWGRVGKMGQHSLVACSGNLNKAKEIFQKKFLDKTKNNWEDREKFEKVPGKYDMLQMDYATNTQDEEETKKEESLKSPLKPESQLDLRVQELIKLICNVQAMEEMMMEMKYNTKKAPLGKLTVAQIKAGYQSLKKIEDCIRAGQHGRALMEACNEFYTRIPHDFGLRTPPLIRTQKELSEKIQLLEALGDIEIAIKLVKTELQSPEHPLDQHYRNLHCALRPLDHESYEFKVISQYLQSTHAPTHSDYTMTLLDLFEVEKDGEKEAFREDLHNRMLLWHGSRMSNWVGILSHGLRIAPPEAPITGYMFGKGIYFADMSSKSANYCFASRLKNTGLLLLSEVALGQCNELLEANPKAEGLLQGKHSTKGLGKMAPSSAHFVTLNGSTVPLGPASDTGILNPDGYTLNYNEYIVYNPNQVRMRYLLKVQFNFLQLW
T1 sequence (P09874 whole entry): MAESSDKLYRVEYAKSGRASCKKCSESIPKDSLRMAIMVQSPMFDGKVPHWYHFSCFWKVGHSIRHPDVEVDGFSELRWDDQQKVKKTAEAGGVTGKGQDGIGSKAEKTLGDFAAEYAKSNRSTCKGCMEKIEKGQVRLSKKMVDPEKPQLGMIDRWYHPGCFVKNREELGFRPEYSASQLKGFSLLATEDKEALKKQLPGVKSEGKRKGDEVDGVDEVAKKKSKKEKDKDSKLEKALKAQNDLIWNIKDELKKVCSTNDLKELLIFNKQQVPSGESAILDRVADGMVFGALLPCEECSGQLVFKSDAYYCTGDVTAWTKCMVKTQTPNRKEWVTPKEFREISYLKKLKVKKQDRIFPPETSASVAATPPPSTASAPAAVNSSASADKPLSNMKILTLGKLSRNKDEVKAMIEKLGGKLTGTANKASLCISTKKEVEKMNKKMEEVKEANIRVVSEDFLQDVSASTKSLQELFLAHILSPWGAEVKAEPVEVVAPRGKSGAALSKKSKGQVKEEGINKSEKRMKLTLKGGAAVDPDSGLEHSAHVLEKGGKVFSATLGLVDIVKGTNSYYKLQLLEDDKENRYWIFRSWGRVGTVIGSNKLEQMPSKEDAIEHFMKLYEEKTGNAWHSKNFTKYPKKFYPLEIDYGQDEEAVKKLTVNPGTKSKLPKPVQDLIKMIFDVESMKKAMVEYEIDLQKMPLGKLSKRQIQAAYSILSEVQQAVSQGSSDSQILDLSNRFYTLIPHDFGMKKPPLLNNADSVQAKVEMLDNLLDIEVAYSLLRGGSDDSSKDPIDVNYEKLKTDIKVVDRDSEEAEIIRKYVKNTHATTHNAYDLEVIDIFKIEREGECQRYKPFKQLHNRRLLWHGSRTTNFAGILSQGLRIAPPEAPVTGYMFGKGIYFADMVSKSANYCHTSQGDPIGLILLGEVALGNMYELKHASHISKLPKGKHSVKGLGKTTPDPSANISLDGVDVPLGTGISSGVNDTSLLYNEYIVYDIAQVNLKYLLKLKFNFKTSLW

Compound: NC(=O)c1ccc(I)c([N+](=O)[O-])c1 [iniparib]
- Blocking of PARPi-FL uptake / target engagement, in words (PARP1/2 [1]): failed to reduce PARPi-FL uptake

Compound: O=C(c1cc(Cc2n[nH]c(=O)c3ccccc23)ccc1F)N1CCN(C(=O)C2CC2)CC1 [Olaparib, olaparib]
- Blocking of [18F]PARPi tumor uptake (target engagement) (PARP1/2 [2]; 5 mg/kg i.v.): 59%
- Blocking of [18F]PARPi tumor uptake (target engagement) (PARP1/2 [2]; 15 mg/kg i.v.): 75%
- Blocking of [18F]PARPi tumor uptake (target engagement) (PARP1/2 [2]; 50 mg/kg i.v.): 78%
- 50% blocking dose (PARP1/2 [2]; single-phase decay curve fit, JHU-LX48 PDX tumor): 3.17 mg/kg
- Initial blocking (t = 1 h) (PARP1/2 [3]): 74%
- Initial blocking (t = 1 h) (PARP1/2 [3]; listed as olaparib): 74%
- [18F]PARPi tumor uptake blocked (autoradiography) (PARP1/2 [4]): 96%
- Inhibition of PARylation (PAR signal) (PARylation in LX22 cells): nearly complete inhibition
- Blocking of PARPi-FL uptake / target engagement, in words (PARP1/2 [1]): most complete target engagement

Compound: CNCc1ccc(-c2[nH]c3cc(F)cc4c3c2CCNC4=O)cc1 [Rucaparib, rucaparib]
- Retention on PARP1/2 binding sites, in words (PARP1/2 [5]; [8]): longest retention
- Blocking of PARPi-FL uptake / target engagement, in words (PARP1/2 [1]): most complete target engagement

Compound: CN(C)Cc1ccc(-c2nc3cccc4c3n2CCNC4=O)cc1 [AG14361]
- Ki (PARP1): < 5000 pM

Compound: C[C@]1(c2nc3c(C(N)=O)cccc3[nH]2)CCCN1 [Veliparib, veliparib]
- Effect on JHU-LX22 cell viability, in words (JHU-LX22 cells): much less cell killing
- Retention on PARP1/2 binding sites, in words (PARP1/2 [5]): faster release kinetics
- Blocking of PARPi-FL uptake (PARP1/2 [1]): more than 50%

Compound: O=C(c1ccc([18F])cc1)N1CCN(C(=O)c2cc(Cc3n[nH]c(=O)c4ccccc34)ccc2F)CC1 [[^18F]PARPi]
- Maximum tumor uptake (JHU-LX48 SCLC PDX [6]; tumor sizes 50-100 mm^3): 2.62 ± 0.27 %ID/g
- Maximum tumor uptake (JHU-LX48 SCLC PDX [6]; tumor sizes 50-1300 mm^3): 2.85 ± 0.49 %ID/g
- Mean tumor uptake, highest single value (JHU-LX48 SCLC PDX [6]; tumor sizes 50-1300 mm^3): 1.24 %ID/g
- Mean tumor uptake, lowest single value (JHU-LX48 SCLC PDX [6]; tumor sizes 50-1300 mm^3): 0.47 %ID/g
- Mean tumor uptake (JHU-LX48 SCLC PDX [6]; tumor sizes 50-1300 mm^3, 2 h post injection): 0.86 ± 0.22 %ID/g
- Maximum tumor uptake (JHU-LX48 SCLC PDX [6]; tumor sizes 800-1300 mm^3): 3.06 ± 0.61 %ID/g
- Mean tumor uptake (JHU-LX48 SCLC PDX [6]; tumor sizes between 100 and 200 mm^3): 0.97 ± 0.18 %ID/g
- Mean tumor uptake (JHU-LX48 SCLC PDX [6]; tumor sizes between 400 and 800 mm^3): 0.71 ± 0.22 %ID/g
- IC50 (PARP2): 210 pM
- Muscle uptake (PET) (JHU-LX48 SCLC PDX [7]; 30 min post injection): 0.90 ± 0.06 %ID/g
- Tumor uptake (PET) (JHU-LX48 SCLC PDX [7]; 30 min post injection): 1.34 ± 0.28 %ID/g
- Muscle uptake (PET) (JHU-LX48 SCLC PDX [7]; 60 min post injection): 0.44 ± 0.03 %ID/g
- Tumor uptake (PET) (JHU-LX48 SCLC PDX [7]; 60 min post injection): 0.94 ± 0.04 %ID/g
- Muscle uptake (PET) (JHU-LX48 SCLC PDX [7]; 120 min post injection): 0.12 ± 0.02 %ID/g
- Tumor uptake (PET) (JHU-LX48 SCLC PDX [7]; 120 min post injection): 0.87 ± 0.21 %ID/g

Compound: NC(=O)c1cccc2cn(-c3ccc([C@@H]4CCCNC4)cc3)nc12 [Niraparib, niraparib]
- Effect on JHU-LX22 cell viability, in words (JHU-LX22 cells): much less cell killing
- Retention on PARP1/2 binding sites, in words (PARP1/2 [5]; [8]): faster release kinetics
- Blocking of PARPi-FL uptake (PARP1/2 [1]): more than 50%

Source: PMC5766608, “Target engagement imaging of PARP inhibitors in small-cell lung cancer” (Nature Communications, 2018)
